Assay results: ChEMBL document CHEMBL5505952, “Targeting SARS-CoV-2 entry processes: The promising potential and future of host-targeted small-molecule inhibitors” (Eur J Med Chem, 2024)
*1 amine or outer side, *2 acyl side, *3 side chain or, on linkers, in order; H or OH if unused. Where a SMILES comes first, the peptide text is derived from it. [ ]: non-standard residue; d: D form. The star is where a group is joined. X1 = N=C(N)NCCC[C@H](N[*:1])C(=O)c1nc2ccc(C(=O)[*:2])cc2s1; Nle = CCCC[C@H](N)C(=O)O; Cbz = O=C(OCc1ccccc1)*

Experiments:
SARS-CoV-2 [1] = experiment: microbe, parasite or virus in culture; settings: Severe acute respiratory syndrome coronavirus 2, Vero C1008, 24 h
SARS-CoV-2 [2] = experiment: microbe, parasite or virus in culture; settings: Severe acute respiratory syndrome coronavirus 2, Calu-3, 48 h
Procathepsin L [3] = target: T1, Procathepsin L (Homo sapiens, UniProt P07711); experiment: Inhibition of human Cathepsin L using Cbz-Phe-Arg-AMC as substrate measured for 10 mins by fluorescence based analysis
T1 sequence (P07711 whole entry): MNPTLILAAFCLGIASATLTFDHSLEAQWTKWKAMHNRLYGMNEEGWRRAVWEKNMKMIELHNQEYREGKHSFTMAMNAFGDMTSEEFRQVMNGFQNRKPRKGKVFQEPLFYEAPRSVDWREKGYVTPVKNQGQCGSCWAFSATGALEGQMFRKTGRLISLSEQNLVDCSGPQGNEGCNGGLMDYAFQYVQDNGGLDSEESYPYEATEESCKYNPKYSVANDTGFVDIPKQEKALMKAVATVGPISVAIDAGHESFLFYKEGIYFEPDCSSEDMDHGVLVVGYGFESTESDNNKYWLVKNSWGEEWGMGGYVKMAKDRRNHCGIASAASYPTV

SARS-CoV-2 [4] = experiment: microbe, parasite or virus in culture; settings: Severe acute respiratory syndrome coronavirus 2, Huh-7
SARS-CoV-2 [5] = experiment: microbe, parasite or virus in culture; settings: Severe acute respiratory syndrome coronavirus 2, A549-ACE2
SARS-CoV-2 [6] = experiment: microbe, parasite or virus in culture; settings: Severe acute respiratory syndrome coronavirus 2, B.1, VeroE6/TMPRSS2, 48 h
SARS-CoV-2 [7] = experiment: Antiviral activity against SARS-CoV-2 USA-WA1/2020 infected in african green monkey Vero C1008 cells assessed as reduction in viral replication by qRT-PCR analysis; assay type: functional, organism-based; settings: Severe acute respiratory syndrome coronavirus 2, USA-WA1/2020, Vero C1008
SARS-CoV-2 [8] = experiment: Antiviral activity against SARS-CoV-2 USA-WA1/2020 infected in human Calu-3 cells assessed as reduction in viral replication by qRT-PCR analysis; assay type: functional, organism-based; settings: Severe acute respiratory syndrome coronavirus 2, USA-WA1/2020, Calu-3
SARS-CoV-2 [9] = assay type: functional, organism-based; settings: Severe acute respiratory syndrome coronavirus 2, USA-WA1/2020, Huh-7
SARS-CoV-2 [10] = assay type: functional, organism-based; settings: Severe acute respiratory syndrome coronavirus 2, Omicron B.1.617.2 delta, 293T/ACE2, 48 h
SARS-CoV-2 [11] = experiment: microbe, parasite or virus in culture; settings: Severe acute respiratory syndrome coronavirus 2, Vero C1008, 24 h; remark: listed apart in the source
Dengue virus = assay type: functional, organism-based; settings: Huh-7, 48 h
Ebolavirus = experiment: Antiviral activity against Ebola virus infected in human HeLa cells assessed as reduction in viral cytopathic effect; assay type: functional, organism-based; settings: Orthoebolavirus
[12] = target: T2, 1-phosphatidylinositol 3-phosphate 5-kinase (Homo sapiens, UniProt Q9Y2I7); experiment: Binding affinity to N-terminal His-tagged human PIKfyve expressed in Sf9 cells assessed as dissociation constant
T2 sequence (Q9Y2I7 whole entry): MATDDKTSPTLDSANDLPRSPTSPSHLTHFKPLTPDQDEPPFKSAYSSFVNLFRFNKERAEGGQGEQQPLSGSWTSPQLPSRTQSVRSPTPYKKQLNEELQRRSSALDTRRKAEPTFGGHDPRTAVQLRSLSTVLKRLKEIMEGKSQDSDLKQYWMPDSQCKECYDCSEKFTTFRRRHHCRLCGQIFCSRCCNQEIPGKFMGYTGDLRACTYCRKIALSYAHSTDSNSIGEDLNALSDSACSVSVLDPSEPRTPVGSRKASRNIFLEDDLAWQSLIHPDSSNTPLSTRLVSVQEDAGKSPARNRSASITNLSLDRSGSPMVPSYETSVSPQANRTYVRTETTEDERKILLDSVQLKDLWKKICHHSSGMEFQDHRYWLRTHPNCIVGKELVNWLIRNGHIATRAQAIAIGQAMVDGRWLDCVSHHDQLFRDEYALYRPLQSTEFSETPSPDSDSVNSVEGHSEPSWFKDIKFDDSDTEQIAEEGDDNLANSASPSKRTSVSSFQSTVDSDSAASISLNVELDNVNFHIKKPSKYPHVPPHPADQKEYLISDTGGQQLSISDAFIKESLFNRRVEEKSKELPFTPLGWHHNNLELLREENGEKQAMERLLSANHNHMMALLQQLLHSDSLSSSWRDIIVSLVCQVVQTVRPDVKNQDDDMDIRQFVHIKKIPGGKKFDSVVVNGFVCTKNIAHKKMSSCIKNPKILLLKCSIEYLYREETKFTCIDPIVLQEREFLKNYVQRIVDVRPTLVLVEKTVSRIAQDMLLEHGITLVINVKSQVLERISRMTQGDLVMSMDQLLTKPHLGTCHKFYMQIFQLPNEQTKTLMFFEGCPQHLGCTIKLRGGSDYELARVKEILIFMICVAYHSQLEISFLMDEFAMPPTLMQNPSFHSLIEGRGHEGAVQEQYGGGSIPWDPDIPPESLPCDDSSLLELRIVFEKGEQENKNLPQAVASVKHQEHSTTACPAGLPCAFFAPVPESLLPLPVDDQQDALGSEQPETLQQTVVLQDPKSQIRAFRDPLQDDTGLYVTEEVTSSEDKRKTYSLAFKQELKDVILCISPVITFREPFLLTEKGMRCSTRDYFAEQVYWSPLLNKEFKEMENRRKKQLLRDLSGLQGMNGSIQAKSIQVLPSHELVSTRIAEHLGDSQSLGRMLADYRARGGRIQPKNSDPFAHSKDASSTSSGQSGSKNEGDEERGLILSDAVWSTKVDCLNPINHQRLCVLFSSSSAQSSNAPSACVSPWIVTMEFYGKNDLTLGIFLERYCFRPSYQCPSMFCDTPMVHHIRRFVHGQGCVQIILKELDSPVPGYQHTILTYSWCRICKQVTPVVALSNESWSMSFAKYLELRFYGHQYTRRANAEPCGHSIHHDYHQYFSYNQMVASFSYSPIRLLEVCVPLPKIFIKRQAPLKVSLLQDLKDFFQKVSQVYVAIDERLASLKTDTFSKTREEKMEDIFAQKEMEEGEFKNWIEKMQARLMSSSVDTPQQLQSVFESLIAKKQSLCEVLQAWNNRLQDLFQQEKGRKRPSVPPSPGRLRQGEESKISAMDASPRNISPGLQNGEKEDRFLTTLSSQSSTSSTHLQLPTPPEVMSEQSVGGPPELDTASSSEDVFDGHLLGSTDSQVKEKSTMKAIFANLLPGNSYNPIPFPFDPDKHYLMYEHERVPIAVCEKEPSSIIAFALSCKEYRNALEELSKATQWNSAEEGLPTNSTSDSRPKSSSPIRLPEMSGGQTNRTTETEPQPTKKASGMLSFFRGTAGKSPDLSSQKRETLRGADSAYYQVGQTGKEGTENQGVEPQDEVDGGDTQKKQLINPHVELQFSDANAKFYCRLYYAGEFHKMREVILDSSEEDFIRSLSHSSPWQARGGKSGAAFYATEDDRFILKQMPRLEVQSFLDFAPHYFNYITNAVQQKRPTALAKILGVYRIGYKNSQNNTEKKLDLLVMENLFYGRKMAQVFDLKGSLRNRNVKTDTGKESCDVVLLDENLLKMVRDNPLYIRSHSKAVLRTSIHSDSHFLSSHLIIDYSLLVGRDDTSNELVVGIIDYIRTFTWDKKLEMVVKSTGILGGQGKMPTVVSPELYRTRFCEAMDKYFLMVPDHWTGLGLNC

SARS-CoV-2 [13] = assay type: functional, organism-based; settings: Severe acute respiratory syndrome coronavirus 2, Vero C1008, 72 h
SARS-CoV-2 [14] = assay type: functional, organism-based; settings: Severe acute respiratory syndrome coronavirus 2, Vero C1008, 48 h
SARS-CoV-2 [15] = experiment: Antiviral activity against VSV-S pseudotyped SARS-CoV-2 infected in human Calu-3 cells assessed as inhibition of viral growth; assay type: functional, organism-based; settings: Severe acute respiratory syndrome coronavirus 2, Calu-3
SARS-CoV-2 [16] = assay type: functional, organism-based; settings: Severe acute respiratory syndrome coronavirus 2, Vero C1008, 48 h; remark: listed apart in the source
[17] = target: T2, 1-phosphatidylinositol 3-phosphate 5-kinase; experiment: Inhibition of PIKfyve (unknown origin)
SARS-CoV-2 [18] = experiment: microbe, parasite or virus in culture; settings: Severe acute respiratory syndrome coronavirus 2, USA-WA1/2020, Vero 76, 72 h
SARS-CoV-2 [19] = experiment: microbe, parasite or virus in culture; settings: Severe acute respiratory syndrome coronavirus 2, Huh-7; remark: listed apart in the source
RAW264.7 = experiment: Antiinflammatory activity in mouse RAW264.7 cells assessed as effect on LPS induced IL-12p40 level measured after 24 hrs by RT-qPCR analysis; assay type: functional, cell-based; settings: RAW264.7, 24 h
[20] = target: Replicase polyprotein 1ab (Severe acute respiratory syndrome coronavirus 2, UniProt P0DTD1); experiment: Inhibition of SARS-Cov-2 Main protease by FRET assay
Procathepsin L [21] = target: T1, Procathepsin L; experiment: Inhibition of human recombinant Cathepsin L using Z-Phe-Arg-AMC as substrate incubated for 60 mins by fluorescence spectrophotometric analysis
SARS-CoV-2 [22] = assay type: functional, organism-based; settings: Severe acute respiratory syndrome coronavirus 2, Wuhan-Hu-1, Vero C1008
[23] = target: Spike glycoprotein/Angiotensin-converting enzyme 2 (Severe acute respiratory syndrome coronavirus 2, UniProt P0DTC2+Q9BYF1); experiment: Inhibition of SARS-CoV-2 spike protein RBD- human ACE2 interaction; assay type: protein assay
Sequence of Spike glycoprotein/Angiotensin-converting enzyme 2 (Q9BYF1 18-805 limits assumed, other chains not shown): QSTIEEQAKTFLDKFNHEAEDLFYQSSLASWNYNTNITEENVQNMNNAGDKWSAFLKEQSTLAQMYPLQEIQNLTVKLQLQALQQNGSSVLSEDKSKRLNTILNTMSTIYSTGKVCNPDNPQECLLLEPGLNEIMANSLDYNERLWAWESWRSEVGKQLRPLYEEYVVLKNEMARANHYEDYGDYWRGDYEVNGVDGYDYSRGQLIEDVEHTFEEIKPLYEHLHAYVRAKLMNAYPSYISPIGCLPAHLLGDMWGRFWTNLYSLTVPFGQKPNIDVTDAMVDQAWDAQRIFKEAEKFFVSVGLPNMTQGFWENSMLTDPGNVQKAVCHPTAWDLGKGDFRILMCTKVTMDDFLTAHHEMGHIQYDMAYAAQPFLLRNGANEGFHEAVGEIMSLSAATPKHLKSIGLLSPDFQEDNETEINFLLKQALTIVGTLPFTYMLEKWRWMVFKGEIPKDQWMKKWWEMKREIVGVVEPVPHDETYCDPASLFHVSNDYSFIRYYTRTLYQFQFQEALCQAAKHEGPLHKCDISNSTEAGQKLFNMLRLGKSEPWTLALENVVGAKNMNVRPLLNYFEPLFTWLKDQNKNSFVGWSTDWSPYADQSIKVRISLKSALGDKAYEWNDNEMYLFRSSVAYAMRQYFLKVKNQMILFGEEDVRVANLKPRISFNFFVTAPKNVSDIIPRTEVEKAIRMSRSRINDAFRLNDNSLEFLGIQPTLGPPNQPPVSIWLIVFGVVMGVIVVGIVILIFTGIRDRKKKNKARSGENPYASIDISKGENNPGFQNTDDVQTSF

SARS-CoV-2 [24] = assay type: functional, organism-based; settings: Severe acute respiratory syndrome coronavirus 2, Vero C1008
[25] = system: Respiratory syncytial virus; experiment: microbe, parasite or virus in culture; settings: human respiratory syncytial virus, A2, HEp-2
SARS-CoV-2 [26] = experiment: Antiviral activity against SARS-CoV-2 WA1/2020 infected in human Calu-3 cells preincubated for 2 hrs followed by viral infection and measured after 48 hrs by microscopy analysis; assay type: functional, organism-based; settings: Severe acute respiratory syndrome coronavirus 2, WA1/2020, Calu-3
Neuropilin-1 = Neuropilin-1 (Homo sapiens, UniProt O14786); experiment: Inhibition of [125I]-VEGF-A165 binding to NRP1 (unknown origin) in HUVEC cells; assay type: cell-based
Sequence of Neuropilin-1 (O14786 whole entry): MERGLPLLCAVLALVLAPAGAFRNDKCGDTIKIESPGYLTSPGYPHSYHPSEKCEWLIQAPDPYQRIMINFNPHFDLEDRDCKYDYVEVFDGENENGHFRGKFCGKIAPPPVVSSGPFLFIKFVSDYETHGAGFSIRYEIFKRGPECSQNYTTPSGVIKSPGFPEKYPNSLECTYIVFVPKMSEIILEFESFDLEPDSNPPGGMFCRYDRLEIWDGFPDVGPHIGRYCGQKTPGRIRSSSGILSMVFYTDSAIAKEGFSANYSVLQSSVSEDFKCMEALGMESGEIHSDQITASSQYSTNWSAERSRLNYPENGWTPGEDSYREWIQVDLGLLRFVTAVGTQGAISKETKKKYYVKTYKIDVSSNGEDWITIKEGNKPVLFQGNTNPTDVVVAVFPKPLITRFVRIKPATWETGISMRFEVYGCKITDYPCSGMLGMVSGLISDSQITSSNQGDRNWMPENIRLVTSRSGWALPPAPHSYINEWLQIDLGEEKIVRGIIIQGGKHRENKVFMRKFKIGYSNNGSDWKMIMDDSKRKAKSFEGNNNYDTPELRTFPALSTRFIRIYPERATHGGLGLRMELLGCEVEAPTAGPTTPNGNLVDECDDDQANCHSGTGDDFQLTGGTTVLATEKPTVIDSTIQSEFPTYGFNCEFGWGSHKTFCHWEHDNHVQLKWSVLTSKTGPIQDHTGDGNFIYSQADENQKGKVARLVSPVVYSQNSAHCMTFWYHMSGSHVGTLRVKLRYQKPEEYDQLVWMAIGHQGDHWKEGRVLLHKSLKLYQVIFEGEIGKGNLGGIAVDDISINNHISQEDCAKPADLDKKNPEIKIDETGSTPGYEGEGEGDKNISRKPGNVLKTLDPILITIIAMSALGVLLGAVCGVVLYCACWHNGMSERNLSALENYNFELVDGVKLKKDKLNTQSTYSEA

C#Cc1cccc(Nc2ncnc3cc(OCCOC)c(OCCOC)cc23)c1 [ERLOTINIB]
EC50 (SARS-CoV-2 [1]): > 20000 nM | EC50 (SARS-CoV-2 [2]): > 20000 nM

CCCCCCCCCC(=O)N[C@@H](Cc1c[nH]c2ccccc12)C(=O)N[C@H](CC(N)=O)C(=O)N[C@@H](CC(=O)O)C(=O)N[C@@H]1C(=O)NCC(=O)N[C@@H](CCCN)C(=O)N[C@@H](CC(=O)O)C(=O)N[C@H](C)C(=O)N[C@@H](CC(=O)O)C(=O)NCC(=O)N[C@H](CO)C(=O)N[C@@H]([C@H](C)CC(=O)O)C(=O)N[C@@H](CC(=O)c2ccccc2N)C(=O)O[C@@H]1C
IC50 (Procathepsin L [3]): 7870 nM | EC50 (SARS-CoV-2 [4]): 207000 nM | EC50 (SARS-CoV-2 [5]): 98800 nM | EC50 (SARS-CoV-2 [6]): 226000 nM

N=C(N)NCCCCC(=O)Nc1cc(C(F)(F)F)cc(NC(=O)c2cc(C(=O)Nc3cc(C(F)(F)F)cc(NC(=O)CCCCNC(=N)N)c3O[C@@H]3CCNC3)ncn2)c1O[C@@H]1CCNC1 [BRILACIDIN]
IC50 (SARS-CoV-2 [7]): 12000 nM | IC50 (SARS-CoV-2 [8]): 12000 nM | IC50 (SARS-CoV-2 [9]): 12000 nM | IC50 (SARS-CoV-2 [10]): 12000 nM

CCOC(=O)[C@H]1O[C@@H]1C(=O)N[C@@H](CC(C)C)C(=O)NCCC(C)C [ALOXISTATIN]
EC50 (SARS-CoV-2 [11]): 270 nM

N#Cc1ccc(-c2cnc3[nH]cc(NC(=O)c4cccnc4)c3c2)cc1
EC50 (Dengue virus): 8000 nM | EC50 (Ebolavirus): > 10000 nM

Cc1ccc(NC(=O)c2cccc(C(F)(F)F)c2)cc1Nc1nc(-c2ccncc2)c2[nH]ccc2n1
Kd [12]: > 30000 nM | EC50 (SARS-CoV-2 [13]): 12300 nM

O=C(N[C@H](/C=C/S(=O)(=O)c1ccccc1)CCc1ccccc1)[C@H](Cc1ccccc1)NC(=O)N1CCNCC1
EC50 (SARS-CoV-2 [11]): 35 nM

CC(=O)N[C@@H](CO)C(=O)N[C@@H](CCCCN)C(=O)N[C@@H](CC(C)C)C(=O)N[C@@H](CCCNC(=N)N)C(=O)c1nc2ccc(C(=O)N[C@H](C(N)=O)C(C)C)cc2s1 (Ac-SKL[X1]V-NH2)
EC50 (SARS-CoV-2 [14]): 307 nM | EC50 (SARS-CoV-2 [15]): 489 nM

O=C[C@H](Cc1ccc(O)cc1)NC(=O)[C@H](Cc1ccccc1)NC(=O)OCc1ccccc1 (Cbz-Phe-Tyr-aldehyde)
EC50 (SARS-CoV-2 [11]): 620 nM

CN(C)Cc1ccc2[nH]c3c(c2c1)Cc1nc(N)ncc1CC3
IC50 (SARS-CoV-2 [16]): 19.5 nM | IC50 [17]: 6.9 nM

CCCC[C@@H](C=O)NC(=O)[C@H](CC(C)C)NC(=O)OCc1ccccc1 [CALPEPTIN]
EC50 (SARS-CoV-2 [18]): 1030 nM | EC50 (SARS-CoV-2 [19]): 29800 nM

CCc1c(C)[nH]c2ccc(C(=O)Nc3cncc(-c4ccc(N5C[C@@H](C)O[C@@H](C)C5)nc4)c3)nc12
IC50 (RAW264.7): 2.4 nM

N[C@H]1C(=O)N[C@@H]2Cc3ccc(c(Cl)c3)Oc3cc4cc(c3O)Oc3ccc(cc3Cl)[C@@H](O)[C@@H]3NC(=O)[C@H](NC(=O)[C@@H]4NC(=O)[C@@H](NC2=O)c2cc(O)cc(c2)Oc2cc1ccc2O)c1ccc(O)c(c1)-c1c(O)cc(O)cc1[C@@H](C(=O)O)NC3=O [TEICOPLANIN AGLYCON]
IC50 [20]: 1460 nM | IC50 (Procathepsin L [21]): 208000 nM | IC50 (SARS-CoV-2 [22]): 2040 nM

CC(C)CCC[C@@H](C)[C@H]1CC[C@H]2[C@@H]3CC[C@H]4C[C@@H](O[C@@H]5O[C@H](COS(=O)(=O)[O-])[C@@H](O[C@H]6O[C@H](COS(=O)(=O)[O-])[C@@H](O[C@H]7O[C@H](COS(=O)(=O)[O-])[C@@H](O[C@H]8O[C@H](COS(=O)(=O)[O-])[C@@H](OS(=O)(=O)[O-])[C@H](OS(=O)(=O)[O-])[C@H]8OS(=O)(=O)[O-])[C@H](OS(=O)(=O)[O-])[C@H]7OS(=O)(=O)[O-])[C@H](OS(=O)(=O)[O-])[C@H]6OS(=O)(=O)[O-])[C@H](OS(=O)(=O)[O-])[C@H]5OS(=O)(=O)[O-])CC[C@]4(C)[C@H]3CC[C@]12C.[Na+].[Na+].[Na+].[Na+].[Na+].[Na+].[Na+].[Na+].[Na+].[Na+].[Na+].[Na+].[Na+]
IC50 [23]: 4270 nM | EC50 (SARS-CoV-2 [24]): 0.9 µg/mL | IC50 [25]: 9.9 µg/mL

CCCC[C@@H](C=O)NC(=O)[C@H](CC(C)C)NC(=O)[C@H](CC(C)C)NC(C)=O (Ac-Leu-Leu-[Nle]-aldehyde)
EC50 (SARS-CoV-2 [4]): 3120 nM

CC(=O)NCC(=O)N[C@@H](CCC(N)=O)C(=O)N[C@@H](Cc1ccccc1)C(=O)N[C@@H](CCCNC(=N)N)C(=O)c1nc2ccccc2s1
EC50 (SARS-CoV-2 [15]): 0.43 nM | IC50 (SARS-CoV-2 [26]): 74 nM

CC(C)(C)OC(=O)N[C@@H](Cc1c[nH]c2ccccc12)C(=O)NNC(=O)OCC(=O)N1CCCc2ccccc21
EC50 (SARS-CoV-2 [11]): 10900 nM

Nc1ncc2c(n1)Cc1c([nH]c3ccc(-c4ccc(F)cc4)cc13)CC2
IC50 (SARS-CoV-2 [16]): 73.3 nM | IC50 [17]: 9.3 nM

Cc1nc(N2CCOCC2)ncc1-c1cc(=O)[nH]c(Nc2ccccc2)n1
IC50 (Neuropilin-1): 0.598 nM

CC(C)[C@H](NC(=O)OCc1ccccc1)C(=O)N[C@H](C=O)Cc1ccccc1 (Cbz-Val-Phe-aldehyde)
EC50 (SARS-CoV-2 [11]): 1560 nM
